Laboratory results taken from patent publication EP1312365A1, “Pteridinones for the treatment of erectile dysfunctions” (Jenapharm GmbH & Co. KG, priority 2001, dated 2003).

Tests used:
[1] = tested on: Macaca fascicularis-Affen; experiment: Monkey model of male erectile dysfunction (intracavernous pressure, blood pressure); assay type: in vivo; conditions: for Maximaler Druck / Mittlerer Druckanstieg: intracavernous bolus 0,5 ml, given after nitroprusside response returned to baseline
Description: Das tricyclische Pteridinon wurde Macaca fascicularis-Affen als intracavernöse Bolusinjektion (0,5 ml, mit 0,5 ml Kochsalzlösung-Flush) verabreicht. Die Auswirkungen auf den intracavernösen Druck wurden mitlaufend gemessen und mit denen des Stickstoffoxid-Donors Nitroprussid (SNP oder NP) verglichen. Stickstoffoxid induziert eine Erektion, indem es als Guanylatcyclase-Agonist wirkt.
Die abschließende Reihe der in vivo-Versuche an Affen untersuchte die Effekte des tricyclischen Pteridinon bei intravenöser Verabreichung (1 und 3 mg/kg) 15 Minuten vor der intracavernösen Injektion von Nitroprussid (10^-5 M). Diese Vorgehensweise wurde gewählt, um zu bestimmen, ob die "systemische Verabreichung" von tricyclischem Pteridinon die Nitroprussid-induzierte, erektile Reaktion wirksam verstärkt.

PDE IV = experiment: PDE subtype profile: inhibition of isolated PDE isozyme; assay type: biochemical, Ratten; conditions: PDE IV aus Rattenniere
Description: (§1) Die verschiedenen Formen cyclischer Nukleotidphosphodiesterasen (PDE) wurden mit üblichen Methoden isoliert. Die PDE-lsozyme wurden aus den folgenden Quellen isoliert: PDE I und PDE V aus Rinder-Aorta, PDE II aus dem linken Ventrikel von Ratten, PDE IV aus Rattenniere und PDE III aus menschlichen Plättchen.
(§2) Die PDE-Aktivität wurde in einem Reaktionsmedium gemessen, das 40 mM Tris-HCI (pH 8,0), 5 mM MgCl2, 1 mM Dithiothreitol und 0,2 µM [^3H] cyclisches GMP enthielt. Das tricyclische Pteridinon wurde in DMSO (2,5%) gelöst. Bei dieser DMSO-Konzentration wurde die Enzymaktivität zu etwa 10% inhibiert. Die IC50-Werte für das tricyclische Pteridinon wurden anhand von Dosis-Wirkungs-Kurven bestimmt, bei denen die Konzentration im Bereich von 1 nM bis 10 µM (ganze log-Inkremente) lag. Für jedes untersuchte PDE-Isozym wurden mindestens zwei IC50-Bestimmungen an verschiedenen Tagen durchgeführt.

[2] = Pharmacokinetic experiments, plasma levels after oral administration; assay type: in vivo; conditions: species not given
[3] = tested on: cavernosalen glatten Muskulatur; experiment: Organ bath contraction study with corpus cavernosum strips (phenylephrine-induced contraction); parameters: species or system Kaninchen; conditions: for Relaxation der kavernösen, glatten Muskulatur: Kaninchen, phenylephrine-precontracted tissue
Description: Männliche New Zealand White-Kaninchen (Gewicht: 2,5-3,0 kg) wurden mit CO2-Gas eingeschläfert. Das cavernöse Gewebe wurde beim Sezieren in eine HEPES-gepufferte Lösung (20°C, pH 7,4) eingebracht. Die oben liegende Skelettmuskulatur wurde vorsichtig entfernt, um nicht die darunterliegende Tunica albuginea zu beschädigen. Im proximalen Ende der Tunica wurde ein Schnitt ausgeführt, während sie distal erweitert wurde. Dann wurde das Corpus Cavernosum bilateral aus der Tunica herausgelöst.
Für menschliches Gewebe wurde das Verfahren zum Ernten von Gewebe vom Institutional Review Board for Human Studies am Boston University Medical Center genehmigt. Cavernöses Gewebe wurde von Patienten erhalten, die sich der Implantation einer Penisprothese zur Behandlung einer erektilen Dysfunktion unterzogen. Im Operationssaal wurden Biopsien der Corpora cavernosa sofort in eisgekühlte (4°C) physiologische Salzlösung gelegt und zum Labor transportiert. Gewebestreifen mit einer Größe von etwa 3 mm x 3mm x 10 mm wurden zugeschnitten und für Organbadstudien gemäß einem ähnlichen Verfahren wie dem nachfolgend beschriebenen präpariert.
Längsschnitte des Corpus cavernosum wurden in Organbäder gelegt, die folgendes (in mM) enthielten: 118 NaCI, 4,7 KCI, 1,2 KH2PO4, MgSO4, 24,9 NaCO3, 5,5 Glucose, 2,0 Na-Pyruvat und 2,0 CaCl2. Die Streifen cavernöser, glatter Muskulatur wurden mit 2 Gramm gestreckt und mit einem Gemisch von 95% O2 und 5% CO2 während zwei Stunden äquilibriert, bevor mit dem Versuchsverfahren begonnen wurde. Dann wurden die Gewebe an Kraftwandler (Grass FT03) angeschlossen. Die Spannungsmessungen wurden mit einem MP100-System und der AcqKnowledge-Software (Biopac) digital aufgezeichnet.
Die Gewebe wurden mit Indomethacin (10 µM) vorbehandelt, um Cyclooxygenaseeffekte zu beseitigen. Durch Zugabe von Phenylephrin (10 µM) zu den Organkammern wurden Kontraktionen induziert. Nachdem die Phenylephrin-induzierte Kontraktion einen dauerhaften Zustand erreicht hatte, wurde das tricyclische Pteridinon (Pt) (Fig. 1a und 1b) oder der Stickstoffoxid-Donor S-Nitroso-N-acetylpenicillamin (SNAP) zugegeben (Fig. 2).

[4] = tested on: Macaca fascicularis-Affen; experiment: Monkey model of male erectile dysfunction (intracavernous pressure, blood pressure); assay type: in vivo
PDE VI = experiment: PDE subtype profile: inhibition of isolated PDE isozyme; assay type: biochemical; conditions: source of PDE VI not given
Description: as §2

Katzen = experiment: Cat model of male erectile dysfunction (intracavernous pressure, systemic blood pressure); assay type: in vivo
Description: Geschlechtsreife männliche Katzen (Körpergewicht 2,9-4,6 kg) wurden mit α-Chloralose (60 mg/kg i.m.) narkotisiert. Dann wurden Hartmansche Lösung und eine Dextroselösung bei […] über die antekubitale Vene infundiert. Die Beatmung wurde über eine an einen Tierventilator (Harvard Apparatus Ltd., Boston MA) angeschlossene Tracheotomie sichergestellt. Pancuroniumbromid (0,3 ml/kg) wurde als Muskelrelaxans infundiert. Nach Bedarf wurden zusätzliche Dosen von α-Chlorase und Pancuroniumbromid gegeben, um ein gleichbleibendes Anästhesie-Niveau beizubehalten.
In der inneren Carotid-Arterie wurde ein zentraler Katheter gelegt, um eine Arterienblut-Gasanalyse (ABGA) durchzuführen und den systemischen Blutdruck in der Arterie aufzuzeichnen. Eine 23 G-Nadel wurde in das Corpus cavernosum eingeführt, um die Veränderungen des intracavernösen Drucks (ICP) zu messen. Sowohl der systemische, arterielle Blutdruck als auch der ICP wurden mittels eines Druckwandlers (Gilson P23XL-1, physiologischer Druckwandler, Ohmeda, Kanada), der an einen Polygraphen (Grass Model 7D, Quincy, MA, USA) angeschlossen war, gemessen. Zur lokalen Injektion von Versuchsverbindungen wurde ein Zweig der inneren Pudendalarterie auf einer Seite mit einem länglichen Polyethylenschlauch (PE-10-Schlauch, Original-Innendurchmesser 0,25 mm, Außendurchmesser 0,76 mm) retrograd mikrokanüliert. Dann wurden zur Verabreichung der Wirkstoffe (jeweils 0,1 ml) in den Penis die übrigen Zweige, bis auf die Penisarterie, ligiert. Mit geeigneten Ventilator-Einstellungen (z.B. Tidalvolumen 10 ml/kg; Atmungsrate 15-20/Min.) wurde eine Normoxie (pH > 7,25, PO2 > 60 mmHg, PCO2 < 40 mmHg) erzeugt und mit ABGA und einem mit der ausgeatmeten Luft verbundenen Capnometer (Modell 2200, Traverse Medical Monitors, USA) überprüft. Um die Volumeneffekte von Lösungsmitteln zu beurteilen, wurden destilliertes Wasser und normale Kochsalzlösung intraarteriell infundiert. Intraarterielles Wasser und Kochsalzlösung hatten selbst bei einem Bolus keinen Effekt auf den intracavernösen Druck (ICP).
Die Lösungen des tricyclischen Pteridinon wurden unter Verwendung einer 1%igen 6N HCI- und einer 5%igen DMSO-Lösung hergestellt. Papaverin (50 mg) + Phentolamin (5 mg) (Bimix) wurde in 5 ml mit 5% DMSO/Rest Kochsalzlösung hergestellt. Jedes Arzneimittel wurde als Bolus von 0,1 ml und 0,05 ml heparinisierter Kochsalzlösung zum Spülen infundiert.
Der Grund-ICP, ΔICP (d.h. die reine Veränderung des Grund-ICP) und Veränderungen des systemischen Blutdrucks wurden nach der intraarteriellen Injektion aufgezeichnet. Alle Daten wurden mittels eines Student's t-Test beurteilt, wobei p<0,05 als signifikant galt. Die Daten priapischer Episoden wurden bei den Berechnungen ausgeschlossen.

PDE V = target: T1, PDE V (Bos taurus, UniProt Q28156); experiment: PDE subtype profile: inhibition of isolated PDE isozyme; assay type: biochemical; conditions: PDE V aus Rinder-Aorta
T1 construct: Die PDE-lsozyme wurden aus den folgenden Quellen isoliert; from tissue; host or cells: bovine aorta
Description: as §1, §2

PDE III = target: T2, PDE III (Homo sapiens, UniProt Q14432); experiment: as above; assay type: biochemical; conditions: PDE III aus menschlichen Plättchen
T2 construct: Die PDE-lsozyme wurden aus den folgenden Quellen isoliert; from tissue; host or cells: human platelets
T2 sequence (Q14432 whole entry): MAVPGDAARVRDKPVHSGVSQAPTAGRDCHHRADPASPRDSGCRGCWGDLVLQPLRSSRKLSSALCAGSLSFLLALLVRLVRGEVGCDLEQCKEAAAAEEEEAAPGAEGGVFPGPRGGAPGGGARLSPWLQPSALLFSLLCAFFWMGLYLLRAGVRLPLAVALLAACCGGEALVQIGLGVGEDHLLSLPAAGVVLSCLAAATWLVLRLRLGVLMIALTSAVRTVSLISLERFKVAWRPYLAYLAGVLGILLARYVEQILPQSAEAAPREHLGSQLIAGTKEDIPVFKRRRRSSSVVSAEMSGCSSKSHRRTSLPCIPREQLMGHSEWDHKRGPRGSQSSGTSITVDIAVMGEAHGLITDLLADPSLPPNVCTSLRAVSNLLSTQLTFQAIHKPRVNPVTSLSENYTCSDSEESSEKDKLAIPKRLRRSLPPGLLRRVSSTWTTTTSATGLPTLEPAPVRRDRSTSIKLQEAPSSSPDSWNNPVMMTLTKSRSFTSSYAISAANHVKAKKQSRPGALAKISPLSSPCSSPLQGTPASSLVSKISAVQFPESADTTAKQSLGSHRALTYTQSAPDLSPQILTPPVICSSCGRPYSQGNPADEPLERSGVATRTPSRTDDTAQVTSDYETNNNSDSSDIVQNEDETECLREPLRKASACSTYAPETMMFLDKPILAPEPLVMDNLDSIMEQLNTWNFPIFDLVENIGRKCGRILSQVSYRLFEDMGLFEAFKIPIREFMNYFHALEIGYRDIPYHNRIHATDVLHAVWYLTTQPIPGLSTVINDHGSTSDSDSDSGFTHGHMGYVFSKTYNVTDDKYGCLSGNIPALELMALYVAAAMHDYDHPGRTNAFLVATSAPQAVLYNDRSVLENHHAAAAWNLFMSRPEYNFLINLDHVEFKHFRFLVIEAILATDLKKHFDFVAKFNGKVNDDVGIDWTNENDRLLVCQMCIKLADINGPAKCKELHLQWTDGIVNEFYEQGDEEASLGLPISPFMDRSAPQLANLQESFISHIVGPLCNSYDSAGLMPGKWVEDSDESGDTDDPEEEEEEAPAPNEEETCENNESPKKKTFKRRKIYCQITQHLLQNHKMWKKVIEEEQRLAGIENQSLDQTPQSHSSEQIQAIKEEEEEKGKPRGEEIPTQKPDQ
Description: as §1, §2

PDE I = experiment: as above; assay type: biochemical; conditions: PDE I aus Rinder-Aorta; 0,2 µM [3H] cyclisches GMP
Description: as §1, §2

[5] = i.v. bolus injection 0,5 mg/Tier

Structure (SMILES): CCc1nc(C)cn1-c1nc(C(C)C)c2[nH]c(=O)c3c(C)nc(CC)n3c2n1 [tricyclisches Pteridinon, 9-Ethyl-2-(2-ethyl-4-methyl-1H-imidazol-1-yl)-7-methyl-4-(2-propyl)imidazo[5,1-h]pteridin-6(5H)on]
- Anstieg des cavernösen Drucks ([1]; Affen, given before administration of nitroprusside): keinen anhaltenden Anstieg
- intracavernöser Druck nach systemischer Verabreichung ([1]; Affen, i.v. 1 and 3 mg/kg, Fig. 5): wirksam erhöht
- Blutdrucksenkung ([1]; Affen, i.v. administration, 1 and 3 mg/kg): 20-40 mmHg
- Maximaler Druck ([1]; Affen, 10^-4 Molar): 165 (1) cm H2O
- Mittlerer Druckanstieg ([1]; Affen, 10^-4 Molar): 62 (1) Δ cm H2O
- Maximaler Druck ([1]; Affen, 10^-5 Molar): 103 (3) cm H2O
- Mittlerer Druckanstieg ([1]; Affen, 10^-5 Molar): 51 (3) Δ cm H2O
- Maximaler Druck ([1]; Affen, 10^-6 Molar): 95 (2) cm H2O
- Mittlerer Druckanstieg ([1]; Affen, 10^-6 Molar): 41 (2) Δ cm H2O
- Adverse finding after pretreatment ([1]; one monkey, pretreatment 3 mg/kg followed by nitroprusside 10^-5 M i.c.): Priapismus
- IC50 (PDE IV): 74 nM
- Zeit bis zu signifikanten Plasmamengen nach oraler Verabreichung [2]: ≤ 30 Minuten
- Relaxation der kavernösen, glatten Muskulatur ([3]; Fig. 2): unmittelbare Relaxation
- IC50 ([3]; Phenylephrin 10 µM, Indomethacin 10^-5 M, Fig. 1 (Kaninchen, and tissue of impotent patients), read-out: IC50-Wert für die Inhibierung der Phenylephrin-induzierten Kontraktion): ~1000 nM
- Stärke im Vergleich zu SNAP ([3]; in vitro model, Fig. 2): stärker
- Dauer des Nitroprussid-induzierten Anstiegs des cavernösen Drucks ([4]; 1 mg/kg given simultaneously with nitroprusside): verdoppelte
- Dauer des Nitroprussid-induzierten Anstiegs des cavernösen Drucks ([4]; 3 mg/kg given simultaneously with nitroprusside): nahezu verdreifachten
- IC50 (PDE VI): 56 nM
- Erektionen steif (visuelle Bestimmung) (Katzen; 0,1 mg/Tier): nicht als steif
- Erektionen steif (Katzen; higher doses (Fig. 3: 0,3 and 0,5 mg/Tier)): steifen Erektion
- Dauer der vorübergehenden Spitzenabfälle des systemischen Arterienblutdrucks (Katzen; [5]): ≤ 5 Minuten
- Spitzenabfälle des systemischen Arterienblutdrucks (Katzen; [5]): 15,8 mmHg
- Anstieg des ICP (Katzen; local intra-arterial administration, 0,1 mg/Tier, p<0,01): 5,5 mmHg
- Dosis, die den ICP erhöht (Katzen; local intra-arterial injection, 0,1 ml bolus, initial dose-finding study): ≥ 0,0038 mg
- ICP, Dosisabhängigkeit (Katzen; local intra-arterial injection, Fig. 3): erhöhte in dosisabhängiger Weise signifikant den ICP
- IC50 (PDE V): 35 nM
- IC50 (PDE III): > 10000 nM
- IC50 (PDE I): 5.8 nM

Structure (SMILES): CC(=O)N[C@H](C(=O)O)C(C)(C)SN=O [SNAP, S-Nitroso-N-acetylpenicillamin, reference compound]
- Relaxation der kavernösen, glatten Muskulatur ([3]; Fig. 2): unmittelbare Relaxation
